Where two headings read alike, the source gives them in different places.
Legend:
[1] = cited from earlier work; for CHI (IAM) from ref [13]: reference CHI (IAM), old columns
[2] = target: T1, human serum albumin (HSA) (Homo sapiens, UniProt P02768); experiment: Protein binding on chemically bonded HSA column (Chiralpak-HSA); conditions: remeasured in this study, pH 7.4
Experimental: Mobile phase A was 50 mM ammonium acetate adjusted to pH 7.4 and mobile phase B was 2-propanol. The flow rate was 1.5 mL/min and the run time was 6 min. The 2-propanol gradient was applied from 0 to 35% from 0 to 3.00 min and kept at 35% until 4.00 min.

[3] = target: T1, human serum albumin (HSA); conditions: cited from earlier work
[4] = IAM chromatography on new IAM.PC.DD2 columns (gradient HPLC, CHI (IAM)); assay type: physicochemical; parameters: key to CHI (IAM) “new” / P20511-014-3 CHI (IAM): CHI (IAM) from retention times calibrated to predefined CHI standards; conditions: for log K (IAM): constant values of the calibration set, CHI IAM converted to octanol/water lipophilicity scale by equation 7; for P20511-014-3 CHI (IAM): new IAM.PC.DD2 column batch P20511-014-3, pH 7.4; for R20511-014-3 CHI (IAM): new IAM.PC.DD2 column batch R20511-014-3, pH 7.4
Experimental: The IAM binding was measured using IAM.PC.DD2 HPLC columns (Regis Technologies, Inc., IL, USA) with dimensions of 100 x 4.6 mm, particle size 10 μm with 300 Å pore size.
Two batches of IAM.PC.DD2 columns were studied (R20511-014-3 and P20511-014-3) that had been prepared using the new batches of silica support.
The retention times were standardized using the IAM calibration mixture, containing octanophenone, heptanophenone, hexanophenone, valerophenone, butyrophenone, propiophenone, acetophenone, acetanilide and paracetamol. The retention times of the compounds were plotted against the isocratically determined and predefined CHI (IAM) values listed in Table 1. The slope and intercept of the obtained straight line was used to calculate the CHI IAM values of new compounds.

[5] = parameters: method as in earlier work; conditions: constant, isocratically determined and predefined values of the calibration set; cited from earlier work
[6] = human

T1 sequence (P02768 25-609): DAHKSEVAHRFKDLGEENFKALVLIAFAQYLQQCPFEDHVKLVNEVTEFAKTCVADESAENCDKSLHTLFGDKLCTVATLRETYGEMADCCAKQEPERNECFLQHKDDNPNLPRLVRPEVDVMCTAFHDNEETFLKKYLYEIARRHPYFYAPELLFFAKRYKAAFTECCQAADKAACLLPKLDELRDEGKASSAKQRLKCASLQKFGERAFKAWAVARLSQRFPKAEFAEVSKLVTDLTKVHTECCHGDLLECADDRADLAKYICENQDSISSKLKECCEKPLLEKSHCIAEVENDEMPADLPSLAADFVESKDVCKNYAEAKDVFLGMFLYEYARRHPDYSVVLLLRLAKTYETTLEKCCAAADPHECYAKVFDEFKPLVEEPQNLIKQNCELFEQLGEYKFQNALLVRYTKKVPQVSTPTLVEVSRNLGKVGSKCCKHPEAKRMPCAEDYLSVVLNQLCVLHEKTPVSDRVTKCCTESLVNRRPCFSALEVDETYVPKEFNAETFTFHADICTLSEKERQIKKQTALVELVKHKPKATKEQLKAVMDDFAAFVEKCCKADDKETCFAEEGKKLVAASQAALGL

Compound	CHI (IAM) from ref [13] [1]	log K HSA [2]	log K HSA from ref [13] [3]	log K (IAM) [4]	P20511-014-3 CHI (IAM) [4]	R20511-014-3 CHI (IAM) [4]	CHI (IAM) [5]	reference log Vdss [6]	outlier in correlation of reference CHI (IAM) with CHI (IAM) on column R20511-014-3 ([4]; lower CHI (IAM) on new batches, outlier if difference greater than 7.2 CHI IAM units)	CHI (IAM) ([1]; previously published, IAM column manufactured 2004-2012)
CC(=O)Nc1ccccc1 [Acetanilide]	10.70	0.43	0.62	1.45	11.50	11.55	11.5	-0.13		
CC(=O)c1ccccc1 [Acetophenone]				1.67			17.2			
CCCC(=O)c1ccccc1 [Butyrophenone]				2.62			32.0			
CCCCCCC(=O)c1ccccc1 [Heptanophenone]				4.30			45.7			
CCCCCC(=O)c1ccccc1 [Hexanophenone]				3.71			41.8			
CCCCCCCC(=O)c1ccccc1 [Octanophenone]				4.97			49.4			
CC(=O)Nc1ccc(O)cc1 [Paracetamol]				1.20			2.90			
CC(C)NCC(O)COc1cccc2[nH]ccc12 (centres unmarked) [Pindolol]	42.00	2.40	1.81		25.31	25.69		0.85	outliers	
CCC1(c2ccccc2)C(=O)NCNC1=O [Primidone]	8.90	4.01	3.44		10.49	10.31		-0.15		
CCCN(CCC)S(=O)(=O)c1ccc(C(=O)O)cc1 [Probenecid]	20.10	0.49	0.76		24.38	23.45		-0.75		
CCC(=O)c1ccccc1 [Propiophenone]				2.15			25.9			
Nc1ccc(S(=O)(=O)Nc2ccc(Cl)nn2)cc1 [Sulfachlorpyridazine]	6.00	2.20	2.04		10.83	10.08		-0.76		
COc1cnc(NS(=O)(=O)c2ccc(N)cc2)nc1 [Sulfameter]	3.70	2.44	4.09		7.09	6.92		-0.61		
Cc1cc(C)nc(NS(=O)(=O)c2ccc(N)cc2)n1 [Sulphadimidine]	34.55	1.72	0.75		11.09	10.89		0.22		34.6
Cc1c(Cl)cccc1Nc1ccccc1C(=O)O [Tolfenamic Acid]	36.60	6.60	2.46		41.53	40.72		-0.76		
CCCCC(=O)c1ccccc1 [Valerophenone]				3.16			37.3			

Source: PMC8915595, “Revisiting the application of Immobilized Artificial Membrane (IAM) chromatography to estimate in vivo distribution properties of drug discovery compounds based on the model of marketed drugs” (ADMET & DMPK, 2020)
